Experimental data taken from PubChem BioAssay AID248 (DTP/NCI, 2004).
Where “and” joins values, the source holds several entries; their conditions need not be identical. Equal entries are not always repeated. Toxic doses and inconclusive results are not listed. Cut-off read from the data, not from the text of the source: active = T/C of 150% or more; inactive = T/C below 125%.

Tested on: L1210 leukemia ip in BDF1 mice, survival T/C
Assay: NCI In Vivo Anticancer Drug Screen. Data for tumor model L1210 Leukemia (intraperitoneal) in B6D2F1 (BDF1) mice
Conditions: endpoint: mean survival time, higher = longer survival
Summary of the method: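 Transplantable tumor model; survival measured in treated vs vehicle control mice. Value = treated/control.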

[1] = dose: 75.0 mg/kg/injection, schedule: Q01DX001 (ip), vehicle: saline
[2] = dose: 150.0 mg/kg/injection, schedule: Q01DX001 (ip), vehicle: saline
[3] = dose: 100.0 mg/kg/injection, schedule: Q01DX001 (ip), vehicle: carboxymethylcellulose (CMC)
[4] = dose: 200.0 mg/kg/injection, schedule: Q01DX001 (ip), vehicle: carboxymethylcellulose (CMC)
[5] = dose: 400.0 mg/kg/injection, schedule: Q01DX001 (ip), vehicle: carboxymethylcellulose (CMC)
[6] = dose: 100.0 mg/kg/injection, schedule: Q01DX009 (ip), vehicle: Klucel (hydroxypropylcellulose) (HPC)
[7] = dose: 200.0 mg/kg/injection, schedule: Q01DX009 (ip), vehicle: Klucel (hydroxypropylcellulose) (HPC)
[8] = dose: 100.0 mg/kg/injection, schedule: Q04DX003 (ip), vehicle: saline with Tween-80
[9] = dose: 200.0 mg/kg/injection, schedule: Q04DX003 (ip), vehicle: saline with Tween-80

Measured: T/C

O=C(O)c1ccc(F)c([N+](=O)[O-])c1
inactive: dose: 100.0 mg/kg/injection, schedule: Q04DX002 (ip), vehicle: saline 102 % of control | dose: 200.0 mg/kg/injection, schedule: Q04DX002 (ip), vehicle: saline 113 % of control | dose: 400.0 mg/kg/injection, schedule: Q04DX002 (ip), vehicle: saline 107 % of control

C=CCON(C)c1ccccc1
inactive: dose: 100.0 mg/kg/injection, schedule: Q04DX003 (ip), vehicle: saline 94 % of control | dose: 200.0 mg/kg/injection, schedule: Q04DX003 (ip), vehicle: saline 108 % of control | dose: 400.0 mg/kg/injection, schedule: Q04DX003 (ip), vehicle: saline 96 % of control

CNC(=O)N/N=C(C)\C=N\NC(=O)NC
inactive: [1] 97 % of control | [2] 108 % of control | dose: 300.0 mg/kg/injection, schedule: Q01DX001 (ip), vehicle: saline 92 % of control

CC1Cc2cccc3ccc(=O)n(c23)C1 (stereo not given)
inactive: [3] 91 % of control | [4] 100 % of control | [5] 98 % of control

CSc1ccc(NC(=O)Sc2ccccc2C)cc1
inactive: dose: 75.0 mg/kg/injection, schedule: Q01DX001 (ip), vehicle: Klucel (hydroxypropylcellulose) (HPC) 95 % of control | dose: 75.0 mg/kg/injection, schedule: Q01DX009 (ip), vehicle: Klucel (hydroxypropylcellulose) (HPC) 93 % of control and 95 % of control | dose: 75.0 mg/kg/injection, schedule: Q04DX003 (ip), vehicle: Klucel (hydroxypropylcellulose) (HPC) 103 % of control | [6] 95 % of control and 103 % of control | dose: 100.0 mg/kg/injection, schedule: Q04DX002 (ip), vehicle: Klucel (hydroxypropylcellulose) (HPC) 98 % of control and 105 % of control | dose: 150.0 mg/kg/injection, schedule: Q01DX001 (ip), vehicle: Klucel (hydroxypropylcellulose) (HPC) 94 % of control | dose: 150.0 mg/kg/injection, schedule: Q01DX009 (ip), vehicle: Klucel (hydroxypropylcellulose) (HPC) 101 % of control | dose: 150.0 mg/kg/injection, schedule: Q04DX003 (ip), vehicle: Klucel (hydroxypropylcellulose) (HPC) 87 % of control | [7] 109 % of control | dose: 200.0 mg/kg/injection, schedule: Q04DX002 (ip), vehicle: Klucel (hydroxypropylcellulose) (HPC) 97 % of control | dose: 300.0 mg/kg/injection, schedule: Q01DX001 (ip), vehicle: Klucel (hydroxypropylcellulose) (HPC) 96 % of control | dose: 300.0 mg/kg/injection, schedule: Q01DX009 (ip), vehicle: Klucel (hydroxypropylcellulose) (HPC) 86 % of control and 88 % of control | dose: 300.0 mg/kg/injection, schedule: Q04DX003 (ip), vehicle: Klucel (hydroxypropylcellulose) (HPC) 91 % of control | dose: 400.0 mg/kg/injection, schedule: Q04DX002 (ip), vehicle: Klucel (hydroxypropylcellulose) (HPC) 93 % of control and 94 % of control

O=C(O)c1c(-c2nccc3ccccc23)[nH]c(-c2ccccc2)c1S(=O)(=O)O
inactive: [1] 103 % of control | [2] 101 % of control

CCC(NC(=O)OCc1ccccc1)C(=O)O (stereo not given)
inactive: [8] 98 % of control | [9] 93 % of control | dose: 400.0 mg/kg/injection, schedule: Q04DX003 (ip), vehicle: saline with Tween-80 97 % of control

CCNC(=S)N(CC)CC
inactive: dose: 50.0 mg/kg/injection, schedule: Q01DX009 (ip), vehicle: Klucel (hydroxypropylcellulose) (HPC) 104 % of control | [6] 102 % of control | [8] 100 % of control | [7] 114 % of control | [9] 103 % of control

c1ccc(C2=NNC(c3ccccc3)=C(c3ccccc3)C2)cc1
inactive: dose: 100.0 mg/kg/injection, schedule: Q01DX001 (ip), vehicle: Klucel (hydroxypropylcellulose) (HPC) 89 % of control | dose: 100.0 mg/kg/injection, schedule: Q04DX003 (ip), vehicle: Klucel (hydroxypropylcellulose) (HPC) 98 % of control | dose: 200.0 mg/kg/injection, schedule: Q01DX001 (ip), vehicle: Klucel (hydroxypropylcellulose) (HPC) 103 % of control | dose: 200.0 mg/kg/injection, schedule: Q04DX003 (ip), vehicle: Klucel (hydroxypropylcellulose) (HPC) 100 % of control | dose: 400.0 mg/kg/injection, schedule: Q01DX001 (ip), vehicle: Klucel (hydroxypropylcellulose) (HPC) 101 % of control | dose: 400.0 mg/kg/injection, schedule: Q04DX003 (ip), vehicle: Klucel (hydroxypropylcellulose) (HPC) 100 % of control

Nc1nc2c(nc(Br)n2C2CC(O)C(CO)O2)c(=O)[nH]1 (stereo not given)
inactive: dose: 50.0 mg/kg/injection, schedule: Q01DX001 (ip), vehicle: saline 102 % of control | dose: 100.0 mg/kg/injection, schedule: Q01DX001 (ip), vehicle: saline 102 % of control | dose: 200.0 mg/kg/injection, schedule: Q01DX001 (ip), vehicle: saline 98 % of control | dose: 400.0 mg/kg/injection, schedule: Q01DX001 (ip), vehicle: saline 98 % of control

COc1ccc2[nH]c3c(c(=O)c2c1)CCCC3
inactive: dose: 50.0 mg/kg/injection, schedule: Q01DX001 (ip), vehicle: carboxymethylcellulose (CMC) 101 % of control | [3] 95 % of control | [4] 100 % of control | [5] 97 % of control
